PubChem BioAssay (NCI)
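Cultured in 96-well plates, cells were exposed to test compound for 48 hours across five concentrations. The concentration for full growth arrest is given as TGI.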

Key:
Test in all cases: growth of human tumour cells (NCI), 48 h
A549 NSCLC = system: A549 NSCLC
CAKI-1 renal = system: CAKI-1 renal
HCT-15 colon = system: HCT-15 colon
HL-60(TB) leukemia = system: HL-60(TB) leukemia
HT29 colon = system: HT29 colon
IGROV1 ovarian = system: IGROV1 ovarian
LOX IMVI melanoma = system: LOX IMVI melanoma
NCI-H226 lung = system: NCI-H226 lung
NCI-H460 lung = system: NCI-H460 lung
RXF 393 renal = system: RXF 393 renal
SF-295 CNS = system: SF-295 CNS
SK-MEL-2 melanoma = system: SK-MEL-2 melanoma
SNB-19 CNS = system: SNB-19 CNS
DU-145 prostate = system: DU-145 prostate
NCI/ADR-RES ovarian = system: NCI/ADR-RES ovarian
PC-3 prostate = system: PC-3 prostate
T-47D breast = system: T-47D breast

Measured: TGI

Cc1ccc(C(=O)C(c2nc3n(c2O)C(=N)N=N3)c2nc3n(c2O)C(=N)N=N3)cc1 (stereo not given)
not listed: DU-145 prostate | NCI/ADR-RES ovarian | PC-3 prostate | T-47D breast
> 100 µM: all other assays above

O=S1(=O)OCCOS(=O)(=O)C1(Cl)Cl
not listed: HCT-15 colon | NCI-H460 lung | RXF 393 renal | DU-145 prostate | NCI/ADR-RES ovarian | PC-3 prostate | T-47D breast
> 100 µM: all other assays above

COc1cccc(N2C(=O)/C(=C/c3ccc(N(CCC#N)CCC#N)cc3)N=C2c2cc([N+](=O)[O-])ccc2Cl)c1
not listed: A549 NSCLC | LOX IMVI melanoma | RXF 393 renal | DU-145 prostate | NCI/ADR-RES ovarian | PC-3 prostate | T-47D breast
> 100 µM: all other assays above

O=C1CNc2cc(N3CCOCC3)ccc2N1
> 100 µM: all assays above

Fc1ccc(Oc2nc3ccccc3nc2-c2ccccc2)cc1
not listed: A549 NSCLC | NCI/ADR-RES ovarian | T-47D breast
> 100 µM: all other assays above

C=CCOC1CC(n2cnc3c(N)ncnc32)OC1CO (stereo not given)
not listed: LOX IMVI melanoma | RXF 393 renal | DU-145 prostate | NCI/ADR-RES ovarian | PC-3 prostate | T-47D breast
> 100 µM: all other assays above

CC(NC(=O)C(N)CC(=O)O)C(=O)OC12CC3CC(CC(C3)C1)C2 (stereo not given)
not listed: HL-60(TB) leukemia | NCI-H226 lung | SF-295 CNS | T-47D breast
> 100 µM: all other assays above

COC(=O)C1CC(c2ccc(Cl)cc2)=NO1 (stereo not given)
> 100 µM: A549 NSCLC | HCT-15 colon | HL-60(TB) leukemia | HT29 colon | IGROV1 ovarian | NCI-H226 lung | NCI-H460 lung | SF-295 CNS | SK-MEL-2 melanoma

CC(=O)NNc1nc(C)c(C(/C=C/c2ccc(Cl)cc2)=N\N=C(N)N)s1
not listed: SK-MEL-2 melanoma | DU-145 prostate | NCI/ADR-RES ovarian | PC-3 prostate | T-47D breast
> 100 µM: all other assays above

Cc1ccc(NC(=O)CCc2nnc3s/c(=C\c4cccc([N+](=O)[O-])c4)c(=O)n23)cc1
not listed: HL-60(TB) leukemia | DU-145 prostate | NCI/ADR-RES ovarian | PC-3 prostate | T-47D breast
> 100 µM: all other assays above

O=C(CC(=O)N1N=C(n2ccc3ccccc32)CC1c1ccccc1)Nc1ccc(Cl)cc1 (stereo not given)
not listed: CAKI-1 renal | NCI-H226 lung | DU-145 prostate | NCI/ADR-RES ovarian | PC-3 prostate | T-47D breast
> 100 µM: all other assays above

Cc1cc(N(CCC#N)CCC#N)ccc1/C=C1N=C(/C=C/c2ccccc2)N(c2ccc(S(N)(=O)=O)cc2)C\1=O
not listed: RXF 393 renal | DU-145 prostate | NCI/ADR-RES ovarian | PC-3 prostate | T-47D breast
> 100 µM: all other assays above

Cc1cn(CC2=NC3CCCCC3N2)c(=O)[nH]c1=O (stereo not given)
not listed: CAKI-1 renal
> 100 µM: all other assays above
